Experimental data reported in patent US20220395608A1, “WATER SOLUBLE BIOADHESIVES” (THE GOVERNING COUNCIL OF THE UNIVERSITY OF TORONTO, priority 2019, published 2022).

Key:
[1] = tested on: A10 smooth muscle cell line; test: WST-1 cell viability assay, direct contact, ISO 10993-5; type: cell-based; details: A10 cells, relative to DMEM negative control, mean ± SD, n = 4
Method: (§1) Cytotoxicity Assays: In vitro cytotoxicity of adhesive formulations was assessed by direct contact with cells, according to ISO 10993-5 [35], which describes test methods to evaluate in vitro cytotoxicity of medical devices and, therefore, determine the in vitro biological response of mammalian cells using appropriate parameters. DNA mass quantification and Water-soluble tetrazolium (WST-1) assays were used to evaluate the toxicity of the formulations to a cell line. Negative and positive controls consisted of growth media with untreated cells and 5% Dimethyl sulfoxide (DMSO), respectively.
(§2) Cell Culture and Sample Preparation: A10 smooth muscle cell line (ATCC, CRL-1476™) were cultured in Dulbecco's modified Eagle's medium (DMEM), supplemented with 100 U mL^−1 penicillin/100 μg of streptomycin and 10% fetal bovine serum in a humidified atmosphere at 37° C. with 5% C02. The medium was changed every other day, allowing the cells to grow and reach confluency. When the cells reached 80-90% confluence, they were passaged following treatment with 0.25% trypsin-EDTA solution. This procedure was repeated until the cells entered their standard cellular cycle. Samples of adhesives were pre-conditioned in an incubator with DMEM for 24 h. Then, cells were seeded onto the samples, to which 200 μL of A10 suspension (approximately 25,000 cells/mL) was added. The seeded specimens were confined in the wells of a 96-well plate for 24 h, 72 h and 7 days.
WST-1 assay: For the WST assay, after removing media and rinsing with 1× with PBS, 200 μL of DMEM was added to each well. […] The absorbance was read using a multi-mode reader (BioTek Cytation 3, Biotek, Winooski, Vt., USA) at 450 nm, with a reference wavelength of 650 nm. […]
(§3) Statistical analysis: Data was analyzed using the software PASW Statistics 21.0 (SPSS Inc, Chicago, Ill., USA). Two-Way analysis of variance (ANOVA) and Tukey's multiple comparison post-hoc tests will be used to determine a statistical significance between the groups for the DNA mass quantification and WST-1 assays. […]

[2] = tested on: A10 smooth muscle cell line; test: DNA mass quantification (Hoechst 33258) cytotoxicity assay, direct contact, ISO 10993-5; type: cell-based; details: A10 cells, relative to DMEM negative control, mean ± SD, n = 4
Method: as §1
as §2, with “Then, cells were seeded onto the samples, to which 200 μL of A10 suspension (approximately 25,000 cells/mL) was added. The seeded specimens were confined in the wells of a 96-well plate for 24 h, 72 h and 7 days.” left out
DNA mass quantification: At each time-point, cells were lysed with ice-cold lysis buffer (0.05% Triton X-100, 50 mM EDTA in PBS) for 1 h and tested for DNA assay as previously described. […] Then, 10 μL of cell lysate was added to the dye and read against a calf thymus DNA standard in a fluorescence microplate reader (BioTek Cytation 3, Biotek, Winooski, Vt., USA), with the excitation wavelength set at 360 nm and the emission wavelength observed at 460 nm.
as §3

## C[S+](C)[O-] [5% DMSO, Dimethyl sulfoxide]
[1]; WST-1, 24 h
  Relative Cell viability (%): 18.4 ± 0.9%
[1]; WST-1, 72 h
  Relative Cell viability (%): 4.4 ± 1.1%
[1]; WST-1, 7 d
  Relative Cell viability (%): 1.0 ± 0.5%
[2]; 24 h
  Relative DNA mass (%): 15.3 ± 5.3%
[2]; 72 h
  Relative DNA mass (%): 1.3 ± 1.9%
[2]; 7 d
  Relative DNA mass (%): 1.4 ± 1.6%
